# In patent US5670538A, “Use of prodelphinidins for obtaining medicaments intended for the treatment of arthrosis” (Laboratoires Dolisos, priority 1992, dated 1997):
# Read-outs that look alike come from different tables or passages of the source.
# How the values were obtained:
# [1] = test system: human articular chondrocytes; assay: Radioimmunoassay of cartilaginous proteoglycans (PG) produced in tridimensional culture of human chondrocytes; format: cell-based; details: for PG in the clusters over 12 days: 0-12 days
# Text: The model used for testing the proanthocyanidols, namely the tridimensional culture of human chondrocytes allows chondrorepair to be quantified by the production of matrix substances: type II collagen, proteoglycans, and chondroresorption by the reduction in the levels of prostaglandin E2 and of OH° and O°2 type free radicals produced.
# 1. Tridimensional culture of human chondrocytes
# The technique used has been described in detail (Bassleer et al., 1986).
# Briefly, human articular chondrocytes are cultivated in DMEM (Dulbecco's Modification of Eagle's Medium--ICN--Gand, Belgium) with either Ultroser G 1% (GIBCO, Gand, Belgium) or 10% of foetal calf serum (ICN--Gand--Belgium), and 50 μg of ascorbic acid/ml added to it. The cartilage originates from the apparently normal zone of heads of human femur suffering from arthrosis, immediately after an operation carried out to insert a total hip prosthesis; it can also originate from the head of a healthy femur, but which has undergone a traumatism and has had to be replaced. This cartilage is then digested by clostridial collagenase 1 mg/ml (Boehringer-Mannheim, Germany) in a buffer (NaCl 120 mM, CaCl2 1 mM, KCl 5 mM, KH2 PO4 1 mM, NaHCO3 25 mM, glucose 2 mM and Hepes 30 mM, pH 7.4) for 24 hours. After 6 successive washings and centrifugations, the chondrocytes, isolated from their matrix, are cultured in flasks (10^6 cells/2 ml of culture medium) placed on a gyrator (10 rpm). The cultures are kept at 37° C. in an atmosphere of air 95%-CO2 5% (Bassleer et al., 1986). Cultivated under these conditions, after 4 to 5 days the chondrocytes form a tridimensional cluster in each flask. These clusters, which at first have a flocculent appearance, then tend to condense during the culture. After two weeks, their diameter is, in general, from 1 to 2 mm.
# The fresh weight of the clusters increases with the duration of the culture, above all during the few first days.
# 2. Radioimmunoassay of cartilaginous proteoglycans (PG)
# The PGs are measured with a radioimmunoassay (RIA) which is specific and sensitive to human cartilaginous PGs (Gysen et al. 1984). The PGs were extracted from human cartilage, according to the methods described by Roughley et al., (1981) and by Bayliss and Venn (1980). The antiserum against the cartilaginous PGs was obtained from the rabbit according to the technique of Vaitukaitis et al. (1971). The radioimmunoassay is carried out in a 0.4 ml volume consisting of 0.1 ml of tracer solution (15000 to 20000 cpm ^125 I-PG, labelled by the chloramine T method (Greenwood, 1973). 0.1 ml of anti-PG antiserum diluted to 1/5000 in phosphate-buffered saline (PBS-50 mM PO4, 150 mM NaCl ), containing BSA (5 g/l bovine serum albumin and 6.7 mM sodium azide) (incubation buffer) and 0.2 ml of several dilutions of the culture medium or of the cluster extract or also of the antigen (0.5 -500 ng/tube).
# After four days at 4° C., the free PGs* (radioactive PGs) are separated from the PG*-antibody complexes by double precipitation (Franchimont et al., 1983).
# The sensitivity of the assay is 0.6 ng/tube. The accuracy of measurement is of the order of 4%. The coefficients of the intra- and inter assay variation are less than 10% and 20% respectively.
# The antibodies are directed against the antigenic determinants of the central protein of PG. There is a complete crossed reaction with human PGs of cartilage from the ribs, vertebral disks and trachea, even with PGs extracted from veins or arteries. There is no cross reaction with glycosaminoglycans or with PGs extracted from foetal tissues or the small PGs from bone.
# The PGs are measured directly in the culture medium. As for the chondrocyte clusters, they are washed 3 times in a phosphate-buffered saline (PBS-50 mM PO4, 150 mM NaCl pH 7.4) containing protease inhibitors (Oegema et al., 1975:100 mM 6-aminohexanoic acid, 10 mM EDTA, 50 mM benzamidine hydrochloride, 5.10^-8 M trypsin inhibitor, 6.7 mM sodium azide and 200 U/ml superoxide dismutase). […]
# [2] = Production of OH° hydroxyl radicals (gamma irradiation, KMB substrate, ethylene by gas chromatography); format: biochemical; details: for % inhibition of the production of hydroxyl radicals: Substrate: KMB, relative to the controls
# Description: 8. Production of OH° hydroxyl radicals
# The products are dissolved in 10 ml flasks at the required concentration in phosphate buffer: 6.6.10^-2 M, pH 7.4 in the presence of alpha keto methiolbutyric acid (10^-3 M: KMB). After the flasks have been hermetically sealed, the samples are irradiated with gamma rays provided by a ^137 Cs source.
# The OH° radicals produced by the gamma radiation react with the KMB to produce the ethylene detected by a gas chromatograph. The height of the ethylene peak is proportional to the quantity of free radicals formed in the medium (Weis et al., 1978).
# [3] = Antilipoperoxidizing activity (gamma irradiation, linoleic acid substrate, pentane); format: biochemical; details: for % inhibition of pentane release from linoleic acid (lipid peroxidation): Substrate: Linoleic acid, relative to the controls
# Description: 9. Antilipoperoxidizing activity
# Similar to the preceding anti-radical method but where the KMB is replaced by linoleic acid (C18: 2), the gamma radiation releases pentane which is analyzed. The height of the pentane peak is proportional to the quantity free of radicals formed in the medium.
smiles,measurement,setting,value
"Oc1cc(O)c2c(c1)O[C@H](c1cc(O)c(O)c(O)c1)[C@@H](O)[C@@H]2c1c(O)cc(O)c2c1O[C@H](c1cc(O)c(O)c(O)c1)[C@@H](O)C2 [Substance Ib, GC-(4 alpha→8) GC]",PG in the clusters over 12 days,"[1]; 1% Ultroser G, 1 μg/ml",742 ± 62 ng/μg DNA
same,PG in the clusters over 12 days,"[1]; 1% Ultroser G, 10 μg/ml",931 ± 24 ng/μg DNA
same,PG in the clusters over 12 days,"[1]; 1% Ultroser G, 100 μg/ml",1108 ± 45 ng/μg DNA
same,"Concentrations of PG in the clusters, effect in words","[1]; 1% Ultroser G, 1 μg/ml",no significant effect
same,PGs released in the culture medium,"[1]; 1% Ultroser G, culture time 0-4 days, 1 μg/ml",13.0 ± 1.22 μg/μg DNA/96 h
same,PGs released in the culture medium,"[1]; 1% Ultroser G, culture time 0-4 days, 10 μg/ml",20.4 ± 3.0 μg/μg DNA/96 h
same,PGs released in the culture medium,"[1]; 1% Ultroser G, culture time 0-4 days, 100 μg/ml",28.2 ± 2.92 μg/μg DNA/96 h
same,PGs released in the culture medium,"[1]; 1% Ultroser G, culture time 4-8 days, 1 μg/ml",3.45 ± 0.56 μg/μg DNA/96 h
same,PGs released in the culture medium,"[1]; 1% Ultroser G, culture time 4-8 days, 10 μg/ml",4.78 ± 0.56 μg/μg DNA/96 h
same,PGs released in the culture medium,"[1]; 1% Ultroser G, culture time 4-8 days, 100 μg/ml",5.65 ± 0.24 μg/μg DNA/96 h
same,PGs released in the culture medium,"[1]; 1% Ultroser G, culture time 8-12 days, 1 μg/ml",0.72 ± 0.08 μg/μg DNA/96 h
same,PGs released in the culture medium,"[1]; 1% Ultroser G, culture time 8-12 days, 10 μg/ml",1.00 ± 0.12 μg/μg DNA/96 h
same,PGs released in the culture medium,"[1]; 1% Ultroser G, culture time 8-12 days, 100 μg/ml",1.32 ± 0.01 μg/μg DNA/96 h
same,"Proteoglycans released during the 12 days of culture, Abs","[1]; 1% Ultroser G, cumulative, 1 μg/ml",17.2 μg/μg DNA/12 days
same,"Proteoglycans released during the 12 days of culture, Abs","[1]; 1% Ultroser G, cumulative, 10 μg/ml",26.3 μg/μg DNA/12 days
same,"Proteoglycans released during the 12 days of culture, Abs","[1]; 1% Ultroser G, cumulative, 100 μg/ml",35.2 μg/μg DNA/12 days
same,activity at 1 µg/mL,"[1]; Homo sapiens, Chondrocyte, 288 h, 1% Ultroser G, cumulative, 1 μg/ml, control = 100, read-out: Proteoglycans released during the 12 days of culture, %",98%
same,activity at 10 µg/mL,"[1]; Homo sapiens, Chondrocyte, 288 h, 1% Ultroser G, cumulative, 10 μg/ml, control = 100, read-out: Proteoglycans released during the 12 days of culture, %",149%
same,activity at 100 µg/mL,"[1]; Homo sapiens, Chondrocyte, 288 h, 1% Ultroser G, cumulative, 100 μg/ml, control = 100, read-out: Proteoglycans released during the 12 days of culture, %",200%
same,activity at 10 µg/mL,"[1]; Homo sapiens, Chondrocyte, foetal calf serum, Table 14, 0-4 days, 10 μg/ml, control = 100%, read-out: PG in the culture medium, % of control",117%
same,activity at 100 µg/mL,"[1]; Homo sapiens, Chondrocyte, foetal calf serum, Table 14, 0-4 days, 100 μg/ml, control = 100%, read-out: PG in the culture medium, % of control",184%
same,activity at 10 µg/mL,"[1]; Homo sapiens, Chondrocyte, foetal calf serum, Table 14, 4-8 days, 10 μg/ml, control = 100%, read-out: PG in the culture medium, % of control",117%
same,activity at 100 µg/mL,"[1]; Homo sapiens, Chondrocyte, foetal calf serum, Table 14, 4-8 days, 100 μg/ml, control = 100%, read-out: PG in the culture medium, % of control",136%
same,activity at 10 µg/mL,"[1]; Homo sapiens, Chondrocyte, foetal calf serum, Table 15, 0-4 days, 10 μg/ml, control = 100%, read-out: PG in the culture medium, % of control",134%
same,activity at 100 µg/mL,"[1]; Homo sapiens, Chondrocyte, foetal calf serum, Table 15, 0-4 days, 100 μg/ml, control = 100%, read-out: PG in the culture medium, % of control",149%
same,activity at 10 µg/mL,"[1]; Homo sapiens, Chondrocyte, foetal calf serum, Table 15, 4-8 days, 10 μg/ml, control = 100%, read-out: PG in the culture medium, % of control",125%
same,activity at 100 µg/mL,"[1]; Homo sapiens, Chondrocyte, foetal calf serum, Table 15, 4-8 days, 100 μg/ml, control = 100%, read-out: PG in the culture medium, % of control",137%
same,activity at 10 µg/mL,"[1]; Homo sapiens, Chondrocyte, foetal calf serum, Table 16, 0-8 days, 10 μg/ml, control = 100%, read-out: PG in the clusters over 8 days, % of control",141%
same,activity at 100 µg/mL,"[1]; Homo sapiens, Chondrocyte, foetal calf serum, Table 16, 0-8 days, 100 μg/ml, control = 100%, read-out: PG in the clusters over 8 days, % of control",146%
same,activity at 10 µg/mL,"[1]; Homo sapiens, Chondrocyte, foetal calf serum, Table 17, 0-8 days, 10 μg/ml, control = 100%, read-out: PG in the clusters over 8 days, % of control",126%
same,activity at 100 µg/mL,"[1]; Homo sapiens, Chondrocyte, foetal calf serum, Table 17, 0-8 days, 100 μg/ml, control = 100%, read-out: PG in the clusters over 8 days, % of control",144%
same,"PGs in the clusters, effect in words","[1]; foetal calf serum, 10 and 100 μg/ml",significantly increased
same,PG in the culture medium,"[1]; foetal calf serum, Table 14, 0-4 days, 10 μg/ml",7.6 ± 0.41 μg/μg DNA - 96 H
same,PG in the culture medium,"[1]; foetal calf serum, Table 14, 0-4 days, 100 μg/ml",11.9 ± 2.09 μg/μg DNA - 96 H
same,PG in the culture medium,"[1]; foetal calf serum, Table 14, 4-8 days, 10 μg/ml",2.32 ± 0.21 μg/μg DNA - 96 H
same,PG in the culture medium,"[1]; foetal calf serum, Table 14, 4-8 days, 100 μg/ml",2.71 ± 0.24 μg/μg DNA - 96 H
same,PG in the culture medium,"[1]; foetal calf serum, Table 15, 0-4 days, 10 μg/ml",7.1 ± 0.36 μg/μg DNA - 96 H
same,PG in the culture medium,"[1]; foetal calf serum, Table 15, 0-4 days, 100 μg/ml",7.9 ± 0.30 μg/μg DNA - 96 H
same,PG in the culture medium,"[1]; foetal calf serum, Table 15, 4-8 days, 10 μg/ml",2.1 ± 1.16 μg/μg DNA - 96 H
same,PG in the culture medium,"[1]; foetal calf serum, Table 15, 4-8 days, 100 μg/ml",2.3 ± 0.13 μg/μg DNA - 96 H
same,PG in the clusters over 8 days,"[1]; foetal calf serum, Table 16, 0-8 days, 10 μg/ml",1108 ± 166 ng/μg DNA
same,PG in the clusters over 8 days,"[1]; foetal calf serum, Table 16, 0-8 days, 100 μg/ml",1142 ± 110 ng/μg DNA
same,PG in the clusters over 8 days,"[1]; foetal calf serum, Table 17, 0-8 days, 10 μg/ml",724.0 ± 72.45 ng/μg DNA
same,PG in the clusters over 8 days,"[1]; foetal calf serum, Table 17, 0-8 days, 100 μg/ml",832.0 ± 59.10 ng/μg DNA
same,% inhibition of the production of hydroxyl radicals,[2]; 10^-3 M,80%
same,% inhibition of the production of hydroxyl radicals,[2]; 10^-4 M,46%
same,% inhibition of the production of hydroxyl radicals,[2]; 10^-5 M,25%
same,"Production of free radicals from KMB, effect in words",[2]; Table 22,significantly inhibits
same,% inhibition of pentane release from linoleic acid (lipid peroxidation),[3]; 10^-3 M,93%
same,% inhibition of pentane release from linoleic acid (lipid peroxidation),[3]; 10^-4 M,45%
same,% inhibition of pentane release from linoleic acid (lipid peroxidation),[3]; 10^-5 M,0%
same,"Production of free radicals from linoleic acid, effect in words",[3]; Table 23,significantly inhibits
